Consider 1 compound from patent US11773391B2, “Therapeutic and diagnostic target for SARS-CoV-2 and COVID-19” (priority 2020, dated 2023).

“Also recorded” adds a separate entry of the source.

The test deals with NCOA7. It is filed as cell-based, human. The settings on record: ECs, FIGS. 3A-3B.

`N#CCNC(=O)c1ccc(-c2ccnc(Nc3ccc(N4CCOCC4)cc3)n2)cc1` [momelotinib, Momelotinib]: the “NCOA7 expression (IL-1β-mediated upregulation of NCOA7)” value was “abrogated the IL-1β-mediated upregulation of NCOA7; also recorded: attenuates NCOA7 expression”.
